The numbers were not newly measured in US12440499B2, “Topical composition” (MC2 Therapeutics Limited, priority 2018, dated 2025), which cites them from elsewhere.

The conditions of the series: in presence of water.

As to `C=C1/C(=C\C=C2/CCC[C@]3(C)[C@@H]([C@H](C)/C=C/[C@@H](O)C4CC4)CC[C@@H]23)C[C@@H](O)C[C@@H]1O` [calcipotriol], the “pH value for maximum stability” value is recorded as “above 8”.
